Results: patent publication US9133262B2, “Somatostatin antagonists” (Ipsen Pharma S.A.S., priority 1996, dated 2015)
Positions of bridges follow the written chain, without caps; N, C: chain ends. Non-standard residues stand in square brackets, D forms with d. Residues, ends and D or L forms follow the SMILES beside them. Phe(F5) = N[C@@H](Cc1c(F)c(F)c(F)c(F)c1F)C(=O)O; Phe(4-Cl) = N[C@@H](Cc1ccc(Cl)cc1)C(=O)O; dPhe(4-Cl) = N[C@H](Cc1ccc(Cl)cc1)C(=O)O; Dip = N[C@H](C(=O)O)C(c1ccccc1)c1ccccc1; Phe(3-F) = N[C@@H](Cc1cccc(F)c1)C(=O)O; Phe(4-F) = N[C@@H](Cc1ccc(F)cc1)C(=O)O; 2Nal = N[C@@H](Cc1ccc2ccccc2c1)C(=O)O; d2Nal = N[C@H](Cc1ccc2ccccc2c1)C(=O)O; Phe(2-F) = N[C@@H](Cc1ccccc1F)C(=O)O; 3Pal = N[C@@H](Cc1cccnc1)C(=O)O; Tle = CC(C)(C)[C@H](N)C(=O)O

Test system: rat pituitary cells
Type: cell-based
Conditions: 3 h
From the text: Bioassay on the In Vitro Release of Growth Hormone
(a) Rat Pituitary Cell Dispersion
Pituitaries from adult Charles River CD male rats (Wilmington, Mass.) housed under controlled conditions were dispersed and cultured using aseptic technique by modification of previously described methods (Hoefer, M. T., et al., Mol. Cell. Endocrinol. 35:229 (1984); Ben-Jonathan, N., et al., Methods Enzymol. 103:249 (1983); and Heiman, M. L., et al., Endocrinology 116:410 (1985)). Pituitaries were removed from sacrificed rats, sectioned, and then placed into a siliconized, liquid scintillation vial containing 2 ml 0.2% trypsin (Worthington Biochemicals, Freehold, N.J.) in sterile-filtered Krebs-Ringer bicarbonate buffer supplemented with 1% bovine serum albumin, 14 mM glucose, modified Eagle medium (MEM) vitamin solution, and MEM amino acids (Gibco Laboratories, Grand Island, N.Y.) (KRBGA). All glassware was siliconized as described by Sayers, et al., Endocrinology 88:1063 (1971). The fragments were incubated in a water bath for 35 min at 37° C. with agitation. The vial contents then were poured into a scintillation vial containing 2 ml 0.1% DNase (Sigma Chemical Co., St. Louis, Mo.) in KRBGA and incubated for 2 min at 37° C. with agitation. After incubation, the tissue was decanted into a 15 ml centrifuge tube and allowed to settle. Medium was discarded, and pituitary sections were washed 3 times with 1 ml fresh-KRBGA. The cells were then dispersed in 2 ml 0.05% LBI (lima bean trypsin inhibitor, Worthington Biochemicals) by gently drawing the fragments into and expelling them out of a siliconized, fire polished Pasteur pipette. Dispersed cells were then filtered through a 630 μm diameter Nylon mesh (Tetko, Elmsford, N.Y.) into a fresh 15 ml centrifuge tube. An additional 2 ml of 0.05% LBI solution was used to rinse the first tube and was transferred to the second tube with filtering.
The dispersed cells were then further diluted with approximately 15 ml sterile-filtered Dulbecco's modified Eagle medium (GIBCO), which was supplemented with 2.5% fetal calf serum (GIBCO), 3% horse serum (GIBCO), 10% fresh rat serum (stored on ice for no longer than 1 hr) from the pituitary donors, 1% MEM non-essential amino acids (GIBCO), and gentamycin (10 ng/ml; Sigma) and nystatin (10,000 U/ml; GIBCO). The cells were poured into a 50 ml round-bottomed glass extraction flask with a large diameter opening and then randomly plated at a density of approximately 200,000 cells per well (Co-star cluster 24; Rochester Scientific Co., Rochester, N.Y.). The plated cells were maintained in the above Dulbecco's medium in a humidified atmosphere of 95% air and 5% CO2 at 37° C. for 4-5 days.
(c) Experimental Incubation and IC50 Determination
In preparation for a hormone challenge, the cells were washed 3 times with medium 199 (GIBCO) to remove old medium and floating cells. Each treatment well contained a total volume of 1 ml medium 199 containing 1% BSA (fraction V; Sigma) with treatments as described below. Each antagonist candidate was tested using a single 24-well cell culture plate. Each treatment was performed in triplicate. Each plate contained 8 treatment groups: one 1 nM growth hormone releasing factor (GRF) (1-29)NH2-stimulated control group; one 1 nM somatostatin-inhibited control group in the presence of 1 nM GRF(1-29)NH2; and 6 doses of a given antagonist in the presence of both 1 nM SRIF and 1 nM GRF per plate. After 3 hrs at 37° C. in a air/carbon dioxide atmosphere (95/5%), the medium was removed and stored at −20° C. until radioimmunoassayed for growth hormone content. IC50's of each antagonist versus 1 nM SRIF were calculated using a computer program (SigmaPlot, Jandel Scientific, San Rafael, Calif.) with the maximum response constrained to the value of the 1 nM GRF(1-29)NH2-stimulated control.

Compound	IC50
CC(C)[C@H](NC(=O)[C@H](CCCCN)NC(=O)[C@@H](Cc1c[nH]c2ccccc12)NC(=O)[C@H](Cc1ccc(O)cc1)NC(=O)[C@@H](Cc1ccc(Cl)cc1)NC(=O)[C@@H](N)Cc1ccc2ccccc2c1)C(=O)N[C@@H](Cc1ccccc1)C(=O)N[C@H](C(N)=O)[C@@H](C)O [Analog No. 1, H2-β-Nal-D-Cpa-Tyr-D-Trp-Lys-Val-Phe-Thr-NH2] (H-[2Nal][dPhe(4-Cl)]Y[dW]KVFT-NH2)	3.03 µM
CC(C)[C@@H]1NC(=O)[C@H](CCCCN)NC(=O)[C@@H](Cc2c[nH]c3ccccc23)NC(=O)[C@H](Cc2cccnc2)NC(=O)[C@H](NC(=O)[C@@H](N)Cc2ccc3ccccc3c2)CSSC[C@@H](C(=O)N[C@@H](Cc2ccc3ccccc3c2)C(N)=O)NC1=O [Analog No. 3, H2-β-Nal-D-Cys-Pal-D-Trp-Lys-Val-Cys-β-Nal-NH2] (H-[2Nal][dC][3Pal][dW]KVC[2Nal]-NH2; disulfide 2-7)	0.01 µM
CC(C)[C@@H]1NC(=O)[C@H](CCCCN)NC(=O)[C@@H](Cc2c[nH]c3ccccc23)NC(=O)[C@H](Cc2cccnc2)NC(=O)[C@H](NC(=O)[C@@H](N)Cc2ccccc2)CSSC[C@@H](C(=O)N[C@@H](Cc2ccc3ccccc3c2)C(N)=O)NC1=O [Analog No. 4, H2-Phe-D-Cys-Pal-D-Trp-Lys-Val-Cys-β-Nal-NH2] (H-F[dC][3Pal][dW]KVC[2Nal]-NH2; disulfide 2-7)	0.03 µM
CC(=O)N[C@@H](Cc1ccc2ccccc2c1)C(=O)N[C@@H]1CSSC[C@@H](C(=O)N[C@@H](Cc2ccc3ccccc3c2)C(N)=O)NC(=O)[C@H](C(C)C)NC(=O)[C@H](CCCCN)NC(=O)[C@@H](Cc2c[nH]c3ccccc23)NC(=O)[C@H](Cc2ccc(O)cc2)NC1=O [Analog No. 5, (H)(CH3CO)-β-Nal-D-Cys-Tyr-D-Trp-Lys-Val-Cys-β-Nal-NH2] (Ac-[2Nal][dC]Y[dW]KVC[2Nal]-NH2; disulfide 2-7)	0.06 µM
C[C@@H](O)[C@H](NC(=O)[C@@H]1CSSC[C@@H](NC(=O)[C@@H](N)Cc2ccccc2)C(=O)N[C@@H](Cc2cccnc2)C(=O)N[C@H](Cc2c[nH]c3ccccc23)C(=O)N[C@@H](CCCCN)C(=O)N[C@@H]([C@@H](C)O)C(=O)N1)C(N)=O [Analog No. 6, H2-Phe-D-Cys-Pal-D-Trp-Lys-Thr-Cys-Thr-NH2] (H-F[dC][3Pal][dW]KTCT-NH2; disulfide 2-7)	0.9 µM
CC(C)(C)[C@@H]1NC(=O)[C@H](CCCCN)NC(=O)[C@@H](Cc2c[nH]c3ccccc23)NC(=O)[C@H](Cc2cccnc2)NC(=O)[C@H](NC(=O)[C@H](N)Cc2ccc(Cl)cc2)CSSC[C@@H](C(=O)N[C@@H](Cc2ccc(Cl)cc2)C(N)=O)NC1=O [Analog No. 7, H2-D-p-Cl-Phe-D-Cys-Pal-D-Trp-Lys-Tle-Cys-p-Cl-Phe-NH2] (H-[dPhe(4-Cl)][dC][3Pal][dW]K[Tle]C[Phe(4-Cl)]-NH2; disulfide 2-7)	0.071 µM
CC(C)[C@H](NC(=O)[C@H](CCCCN)NC(=O)[C@@H](Cc1c[nH]c2ccccc12)NC(=O)[C@H](Cc1ccc(O)cc1)NC(=O)[C@@H](Cc1ccc(Cl)cc1)NC(=O)[C@H](N)Cc1ccc2ccccc2c1)C(=O)N[C@@H](Cc1ccccc1)C(=O)N[C@H](C(N)=O)[C@@H](C)O [Analog No. 8, H2-D-β-Nal-D-Cpa-Tyr-D-Trp-Lys-Val-Phe-Thr-NH2] (H-[d2Nal][dPhe(4-Cl)]Y[dW]KVFT-NH2)	3.96 µM
CC(C)[C@@H]1NC(=O)[C@H](CCCCN)NC(=O)[C@@H](Cc2c[nH]c3ccccc23)NC(=O)[C@H](Cc2cccnc2)NC(=O)[C@H](NC(=O)[C@@H](N)C(c2ccccc2)c2ccccc2)CSSC[C@@H](C(=O)N[C@H](C(N)=O)C(c2ccccc2)c2ccccc2)NC1=O [Analog No. 10, H2-Dip-D-Cys-Pal-D-Trp-Lys-Val-Cys-Dip-NH2] (H-[Dip][dC][3Pal][dW]KVC[Dip]-NH2; disulfide 2-7)	0.62 µM
CC(C)[C@@H]1NC(=O)[C@H](CCCCN)NC(=O)[C@@H](Cc2c[nH]c3ccccc23)NC(=O)[C@H](Cc2c[nH]cn2)NC(=O)[C@H](NC(=O)[C@@H](N)Cc2c(F)c(F)c(F)c(F)c2F)CSSC[C@@H](C(=O)N[C@@H](Cc2c(F)c(F)c(F)c(F)c2F)C(N)=O)NC1=O [Analog No. 11, H2—F5-Phe-D-Cys-His-D-Trp-Lys-Val-Cys-F5-Phe-NH2] (H-[Phe(F5)][dC]H[dW]KVC[Phe(F5)]-NH2; disulfide 2-7)	0.72 µM
CC(C)[C@@H]1NC(=O)[C@H](CCCCN)NC(=O)[C@@H](Cc2c[nH]c3ccccc23)NC(=O)[C@H](Cc2cccnc2)NC(=O)[C@H](NC(=O)[C@@H](N)Cc2ccc(F)cc2)CSSC[C@@H](C(=O)N[C@@H](Cc2ccc(F)cc2)C(N)=O)NC1=O [Analog No. 12, H2-p-F-Phe-D-Cys-Pal-D-Trp-Lys-Val-Cys-p-F-Phe-NH2] (H-[Phe(4-F)][dC][3Pal][dW]KVC[Phe(4-F)]-NH2; disulfide 2-7)	0.056 µM
CC(C)[C@@H]1NC(=O)[C@H](CCCCN)NC(=O)[C@@H](Cc2c[nH]c3ccccc23)NC(=O)[C@H](Cc2cccnc2)NC(=O)[C@H](NC(=O)[C@@H](N)C(c2ccccc2)c2ccccc2)CSSC[C@@H](C(=O)N[C@@H](Cc2ccc3ccccc3c2)C(N)=O)NC1=O [Analog No. 13, H2-Dip-D-Cys-Pal-D-Trp-Lys-Val-Cys-β-Nal-NH2] (H-[Dip][dC][3Pal][dW]KVC[2Nal]-NH2; disulfide 2-7)	0.11 µM
CC(C)[C@@H]1NC(=O)[C@H](CCCCN)NC(=O)[C@@H](Cc2c[nH]c3ccccc23)NC(=O)[C@H](Cc2cccnc2)NC(=O)[C@H](NC(=O)[C@@H](N)Cc2cccc(F)c2)CSSC[C@@H](C(=O)N[C@@H](Cc2cccc(F)c2)C(N)=O)NC1=O [Analog No. 14, H2-m-F-Phe-D-Cys-Pal-D-Trp-Lys-Val-Cys-m-F-Phe-NH2] (H-[Phe(3-F)][dC][3Pal][dW]KVC[Phe(3-F)]-NH2; disulfide 2-7)	0.11 µM
CC(C)[C@@H]1NC(=O)[C@H](CCCCN)NC(=O)[C@@H](Cc2c[nH]c3ccccc23)NC(=O)[C@H](Cc2cccnc2)NC(=O)[C@H](NC(=O)[C@@H](N)Cc2ccccc2F)CSSC[C@@H](C(=O)N[C@@H](Cc2ccccc2F)C(N)=O)NC1=O [Analog No. 15, H2-o-F-Phe-D-Cys-Pal-D-Trp-Lys-Val-Cys-o-F-Phe-NH2] (H-[Phe(2-F)][dC][3Pal][dW]KVC[Phe(2-F)]-NH2; disulfide 2-7)	0.14 µM

Same assay, conditions: cultured rat pituitary cells; 1 nM SRIF and 1 nM GRF(1-29)NH2; 3 hrs at 37° C.; growth hormone by radioimmunoassay; read-out: IC50 of antagonist versus 1 nM SRIF (growth hormone release)

Compound	IC50
CC(C)[C@@H]1NC(=O)[C@H](CCCCN)NC(=O)[C@@H](Cc2c[nH]c3ccccc23)NC(=O)[C@H](Cc2ccc(O)cc2)NC(=O)[C@H](NC(=O)[C@@H](N)Cc2ccc3ccccc3c2)CSSC[C@@H](C(=O)N[C@@H](Cc2ccc3ccccc3c2)C(N)=O)NC1=O [Analog No. 2, H2-β-Nal-D-Cys-Tyr-D-Trp-Lys-Val-Cys-β-Nal-NH2] (H-[2Nal][dC]Y[dW]KVC[2Nal]-NH2; disulfide 2-7)	0.04 µM
CC(C)[C@@H]1NC(=O)[C@H](CCCCN)NC(=O)[C@@H](Cc2c[nH]c3ccccc23)NC(=O)[C@H](Cc2ccc(O)cc2)NC(=O)[C@H](NC(=O)[C@H](N)Cc2ccc3ccccc3c2)CSSC[C@@H](C(=O)N[C@@H](Cc2ccc3ccccc3c2)C(N)=O)NC1=O [Analog No. 9, H2-D-β-Nal-D-Cys-Tyr-D-Trp-Lys-Val-Cys-β-Nal-NH2] (H-[d2Nal][dC]Y[dW]KVC[2Nal]-NH2; disulfide 2-7)	1.36 µM
